Source: ChEMBL document CHEMBL1201862, “PubChem BioAssay data set” (2004)
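Protocol summary: plate cells (96-well), add compound at 5 concentrations, incubate 48 h, interpolate endpoints linearly. GI50 = concentration required for 50% inhibition of growth.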 The source made the active and inactive calls. Rule as the data show it: active = GI50 up to about 1.1 µM and inactive = higher. *1 amine or outer side, *2 acyl side, *3 side chain or, on linkers, in order; H or OH if unused. Where a SMILES comes first, the peptide text is derived from it. [ ]: non-standard residue; d: D form. The star is where a group is joined. ξ: configuration not given here. X26 = O=C([C@H]1CCC[C@H]1N[*:1])[*:2]; ξW = NC(Cc1c[nH]c2ccccc12)C(=O)O; ξF = NC(Cc1ccccc1)C(=O)O; Boc = CC(C)(C)OC(=O)*; ξK = NCCCCC(N)C(=O)O; ξT = CC(O)C(N)C(=O)O; tBu = CC(C)(C)*

Legend:
Test in all cases: NCI anticancer screen, dose series, 48 h
NCI-H460 = tested on: NCI-H460
SF-295 = tested on: SF-295
TK-10 = tested on: TK-10
NCI-H23 = tested on: NCI-H23
PC-3 = tested on: PC-3
UACC-62 = tested on: UACC-62
HCT-116 = tested on: HCT-116
MOLT-4 = tested on: MOLT-4
M14 = tested on: M14
SF-539 = tested on: SF-539
786-0 = tested on: 786-0
A498 = tested on: A498
OVCAR-5 = tested on: OVCAR-5
LOX IMVI = tested on: LOX IMVI
SK-MEL-28 = tested on: SK-MEL-28
A549 = tested on: A549
SK-MEL-5 = tested on: SK-MEL-5
SNB-75 = tested on: SNB-75
SR = tested on: SR

Measured: GI50

Cn1cnc2c1c(=O)n(CCNCCO)c(=O)n2C
inactive: NCI-H460 > 100 µM | SF-295 > 100 µM | TK-10 > 100 µM | NCI-H23 > 100 µM | PC-3 > 100 µM | UACC-62 > 100 µM | HCT-116 > 100 µM | MOLT-4 > 100 µM | M14 > 100 µM | SF-539 > 100 µM | 786-0 > 100 µM | A498 > 100 µM | OVCAR-5 > 100 µM | LOX IMVI > 100 µM | SK-MEL-28 > 100 µM | A549 > 100 µM | SK-MEL-5 > 100 µM | SNB-75 > 100 µM

OCCNCNc1nc(NCNCCO)nc(N(CNCCO)CNCCO)n1
inactive: NCI-H460 21.9 µM | SF-295 30.6 µM | TK-10 28.8 µM | NCI-H23 21.2 µM | PC-3 22.3 µM | UACC-62 18.8 µM | HCT-116 18.7 µM | MOLT-4 23.2 µM | M14 19 µM | SF-539 19.6 µM | 786-0 17.7 µM | A498 28.1 µM | OVCAR-5 13.6 µM | LOX IMVI 17 µM | SK-MEL-28 24.4 µM | A549 27.2 µM | SK-MEL-5 15.1 µM | SNB-75 24.7 µM

SCCSCCCSCCS
inactive: NCI-H460 31.1 µM | SF-295 76.9 µM | SR 4.16 µM | NCI-H23 > 100 µM | PC-3 20 µM | UACC-62 > 100 µM | HCT-116 > 100 µM | MOLT-4 4.97 µM | M14 74.6 µM | SF-539 > 100 µM | 786-0 > 100 µM | OVCAR-5 > 100 µM | LOX IMVI 47.5 µM | SK-MEL-28 > 100 µM | A549 > 100 µM | SK-MEL-5 > 100 µM | SNB-75 59.3 µM

CC1=NN(C(=O)CC(=O)Nc2ccccc2Cl)C(=O)C1/N=N\c1ccc(S(=O)(=O)c2ccc(/N=N/C3C(=O)N(C(=O)CC(=O)Nc4ccccc4Cl)N=C3C)cc2)cc1 (centres undefined)
inactive: NCI-H460 > 100 µM | SF-295 > 100 µM | TK-10 > 100 µM | SR > 100 µM | NCI-H23 > 100 µM | PC-3 > 100 µM | UACC-62 > 100 µM | HCT-116 > 100 µM | MOLT-4 > 100 µM | M14 > 100 µM | SF-539 > 100 µM | 786-0 > 100 µM | OVCAR-5 > 100 µM | LOX IMVI 54.1 µM | SK-MEL-28 > 100 µM | A549 > 100 µM | SK-MEL-5 > 100 µM | SNB-75 > 100 µM

CC(=O)Oc1c(OC(C)C)cc(=O)n2ccsc12
inactive: NCI-H460 > 100 µM | SF-295 > 100 µM | TK-10 > 100 µM | NCI-H23 > 100 µM | PC-3 > 100 µM | UACC-62 > 100 µM | HCT-116 > 100 µM | MOLT-4 43.9 µM | M14 > 100 µM | SF-539 > 100 µM | 786-0 > 100 µM | A498 > 100 µM | OVCAR-5 > 100 µM | LOX IMVI > 100 µM | SK-MEL-28 > 100 µM | A549 > 100 µM | SK-MEL-5 62.8 µM | SNB-75 > 100 µM

NCCN/C(=N\c1ccccc1)Nc1ccccc1
inactive: NCI-H460 > 100 µM | SF-295 > 100 µM | TK-10 > 100 µM | SR > 100 µM | NCI-H23 > 100 µM | PC-3 55.6 µM | UACC-62 > 100 µM | HCT-116 94.2 µM | MOLT-4 > 100 µM | M14 > 100 µM | SF-539 70.8 µM | 786-0 > 100 µM | LOX IMVI 83.8 µM | SK-MEL-28 > 100 µM | A549 > 100 µM | SK-MEL-5 99.5 µM | SNB-75 72.6 µM

O=C1c2ccccc2S(=O)(=O)c2ccccc21
inactive: NCI-H460 > 100 µM | SF-295 > 100 µM | TK-10 > 100 µM | NCI-H23 > 100 µM | PC-3 > 100 µM | UACC-62 > 100 µM | HCT-116 > 100 µM | MOLT-4 > 100 µM | M14 > 100 µM | SF-539 > 100 µM | 786-0 > 100 µM | A498 > 100 µM | OVCAR-5 > 100 µM | LOX IMVI > 100 µM | SK-MEL-28 > 100 µM | A549 > 100 µM | SK-MEL-5 > 100 µM | SNB-75 > 100 µM

CC(C)c1c(O)ccc2c1CCC1C(C)(C)CCCC21C (centres undefined)
inactive: NCI-H460 17.4 µM | SF-295 17.9 µM | TK-10 20.7 µM | SR 19.5 µM | NCI-H23 17.3 µM | PC-3 17.6 µM | UACC-62 15.2 µM | HCT-116 17.2 µM | MOLT-4 19.1 µM | M14 16.2 µM | SF-539 18.7 µM | 786-0 18.1 µM | OVCAR-5 14.6 µM | LOX IMVI 17.1 µM | SK-MEL-28 21.3 µM | A549 17 µM | SK-MEL-5 16.3 µM | SNB-75 18.6 µM

CC(NC(=O)C(N)CC(=O)O)NC(=O)C1CCC1 (centres undefined)
inactive: NCI-H460 > 100 µM | TK-10 > 100 µM | NCI-H23 > 100 µM | PC-3 > 100 µM | UACC-62 > 100 µM | HCT-116 > 100 µM | MOLT-4 > 100 µM | M14 > 100 µM | SF-539 > 100 µM | 786-0 > 100 µM | A498 > 100 µM | OVCAR-5 > 100 µM | LOX IMVI > 100 µM | SK-MEL-28 > 100 µM | A549 > 100 µM | SK-MEL-5 > 100 µM | SNB-75 > 100 µM

COc1cc(Br)c(CC2NCCc3cc(OC)c(OC)cc32)cc1OC (centres undefined)
inactive: NCI-H460 55.2 µM | SF-295 12 µM | TK-10 83.4 µM | SR 50.9 µM | NCI-H23 20.9 µM | UACC-62 77.4 µM | HCT-116 24.4 µM | MOLT-4 46.6 µM | M14 44.7 µM | 786-0 93.5 µM | A498 76 µM | OVCAR-5 40.9 µM | SK-MEL-28 70.5 µM | A549 81.1 µM | SNB-75 70.3 µM

Cc1ccc(-c2c(C#N)c(O)n(NS(=O)(=O)c3ccccc3)c(=O)c2C#N)cc1
inactive: NCI-H460 > 100 µM | SF-295 > 100 µM | TK-10 > 100 µM | PC-3 > 100 µM | UACC-62 > 100 µM | HCT-116 > 100 µM | MOLT-4 > 100 µM | M14 > 100 µM | SF-539 > 100 µM | 786-0 > 100 µM | A498 > 100 µM | OVCAR-5 > 100 µM | LOX IMVI > 100 µM | SK-MEL-28 > 100 µM | A549 > 100 µM | SK-MEL-5 68.5 µM | SNB-75 > 100 µM

CC(OC(C)(C)C)C1NC(=O)C(CCCCNC(=O)OC(C)(C)C)NC(=O)C(Cc2c[nH]c3ccccc23)NC(=O)C(Cc2ccccc2)NC(=O)[C@H]2CCC[C@H]2NC(=O)C(Cc2ccccc2)NC1=O (some centres undefined) (cyclo([X26][ξF][ξW][ξK](Boc)[ξT](tBu)[ξF]))
inactive: NCI-H460 38.2 µM | SF-295 9.79 µM | SR 72.3 µM | NCI-H23 23.8 µM | PC-3 6.37 µM | UACC-62 28.5 µM | HCT-116 7.26 µM | MOLT-4 14.2 µM | M14 28.3 µM | SF-539 75.9 µM | 786-0 > 100 µM | OVCAR-5 17.9 µM | LOX IMVI 16.1 µM | SK-MEL-28 > 100 µM | A549 73.3 µM | SK-MEL-5 3.13 µM | SNB-75 5.3 µM

CCc1c(O)cc(=O)oc1-c1ccc(OC)c(OC)c1
inactive: NCI-H460 > 100 µM | SF-295 > 100 µM | TK-10 > 100 µM | NCI-H23 > 100 µM | PC-3 > 100 µM | UACC-62 > 100 µM | HCT-116 > 100 µM | MOLT-4 > 100 µM | M14 > 100 µM | SF-539 > 100 µM | 786-0 > 100 µM | A498 > 100 µM | OVCAR-5 > 100 µM | LOX IMVI > 100 µM | SK-MEL-28 > 100 µM | A549 > 100 µM | SK-MEL-5 > 100 µM | SNB-75 72.6 µM

Cc1cccc(NC(=O)C(=O)Cc2nc3ccccc3nc2O)c1C
inactive: NCI-H460 > 100 µM | SF-295 > 100 µM | TK-10 > 100 µM | SR > 100 µM | NCI-H23 > 100 µM | UACC-62 > 100 µM | HCT-116 > 100 µM | M14 > 100 µM | SF-539 > 100 µM | 786-0 > 100 µM | A498 > 100 µM | OVCAR-5 > 100 µM | LOX IMVI > 100 µM | SK-MEL-28 > 100 µM | A549 > 100 µM | SK-MEL-5 > 100 µM | SNB-75 84.9 µM

CC(NC(=O)C1CCCN1C(=O)CNC(=O)OC(C)(C)C)C(=O)O (stereo not drawn) (Boc-Gly-Pro-Ala-OH; configuration not given here)
inactive: NCI-H460 > 100 µM | SF-295 > 100 µM | TK-10 > 100 µM | SR > 100 µM | NCI-H23 > 100 µM | PC-3 > 100 µM | UACC-62 > 100 µM | MOLT-4 > 100 µM | M14 > 100 µM | SF-539 > 100 µM | 786-0 > 100 µM | OVCAR-5 > 100 µM | SK-MEL-28 > 100 µM | A549 > 100 µM | SK-MEL-5 > 100 µM | SNB-75 > 100 µM
